These results are taken from US20080221134A1, “8-ALKYNYLXANTHINES AND DERIVATIVES” (priority 2006, published 2008).

In general, IC50 refers to the concentration needed to halve the response being measured. A high value points to weaker potency in that assay. Broadly, the melting point is the temperature of the solid-liquid transition. Usually inhibition stands for the percentage by which the read-out fell short of the control.

Data set [1] relates to CGS-21680 induced catalepsy. Put plainly: Acute CGS-21680 induced catalepsy test. It is filed as in vivo, rat. Particulars: i.p. in DMSO, 0.1-10 mg/kg; listed as 8-(phenylethynyl)-DPMX. The protocol:
(§1) Animals were administered with Reserpine or CGS-21680 according to methods known to the skilled person in the art. These models and procedures are e.g. described by Ferré S. et al., Neurosci. Let., 1991, 130, 162; Ferré S. et al., Neuroscience, 1992, 51, 501; Kafka S. H. et al., Eur. J. Pharmacol., 1996, 295, 147; Rimondini R. et al., Neuropsychopharmacology, 1997, 17, 82 and are herein incorporated by reference. In the acute CGS-21680 induced catalepsy model (CGS model) the test compounds (TC, compounds according to the present invention) and CGS-21680 (i.p. 2 mg/kg) were administered 60 minutes before the start of the catalepsy bar measurement and behavioural testing described below (see also FIG. 1). In the acute Reserpine induced catalepsy model (RES model Resperine (subcutaneously, 3 mg/kg) was injected 24 h prior to the test compound application. Catalepsy bar measurement took place 60 minutes after test compound application (see FIG. 1). Test compounds were administered i.p. in DMSO in following doses (mg/kg): 0.1, 0.3, 1, 3, 10.
(§2) Dimethylsulfoxide (DMSO) was used as vehicle for the test compounds and Reserpine. Reserpine was dissolved in DMSO in a concentration of 3 mg/ml. A 10% (w/v) Cyclodextrin solution was used as vehicle for CGS-21680. CGS 21680 was dissolved in 10% (w/v) Cyclodextrine in a concentration of 2 mg/ml.
Caffeine was used as a reference compound in the CGS-21680 induced catalepsy model. A caffeine solution was prepared with water for injection purposes to a concentration of 30 mg/ml. The solution was administered intraperitoneally in a volume of 1 ml/kg (30 mg/kg) 30 minutes before the beginning of testing and after CGS-21680 pre-treatment (1 hour prior to testing).
The catalepsy bar after CGS-21680 administration was measured (CAT) as follows: The rat was placed with its forepaws on a log of wood. […] If the animal descended faster than 1 second, the trial was regarded as invalid. If more than 20 trials were rated as invalid, the values of all uncompleted trials were noted as 0. The animal was tested until five trials had been completed and the time for each trial was noted. Only the values of the last three trials were used for the analysis. The following parameters were calculated: maximum time to descend (s) and median time to descend (s).
Behavioural observation (BO) included the measurement of the body tone, inclined plane and grip strength.
The rat is taken in the hand of the observer and the animal's body tone is rated as normal, soft or hard. The rating is performed immediately after taking the animal from its home cage before performance of catalepsy testing. The following parameters were calculated: mean occurrence of hard body tone and mean occurrence of soft body tone.
The rat is horizontally placed to an inclined plane for a maximum time of 30 seconds. Time to reach bottom or top is measured. […] The test is performed after catalepsy testing. Time to leave the inclined plane(s) was measured.
The rat is put on a grip and the observer pulls the animal back on his tail. The strength (fore paws and hind paws) by which it holds on the grid is scored as grasping and pulling, grasping without pulling or no grasping. The test is performed after the inclined plane test. The following parameters were calculated: mean score of fore paw grip strength and mean score of hind paw grip strength.
(§3) All statistical tests were performed two tailed with a value of p<0.05 considered as significant.
(§4) To assess the effects of CGS-21680 and Reserpine pre-treatment compared to vehicle treated controls statistical comparisons between the test groups were performed using a U test statistic.
To assess the effects of test compounds on CGS-21680 and Reserpine pre-treated animals correlation analyses including animals from test groups and the respective test compound-treated groups were performed. […]

The subject of data set [2] is Reserpine induced catalepsy. Description: Acute Reserpine induced catalepsy test. Conditions: i.p. in DMSO, 0.1-10 mg/kg; listed as 8-(phenylethynyl)-DPMX. It is filed as in vivo, rat. On the procedure:
as §1, §2
Apomorphine was used as a reference compound in the Reserpine induced catalepsy model. Apomorphine injection solution was diluted with purified water to a concentration of 0.3 mg/ml. The solution was administered subcutaneously (s.c.) in a volume of 1 ml/kg (0.3 mg/kg) 20 minutes before the begin of testing after Reserpine pre-treatment (25 hours prior to testing).
The catalepsy bar after Reserpine administration was measured (CAT) as follows: The rat was placed with its forepaws on a log of wood. […] The animal was tested for three trials and the time for each trial was noted. The following parameters were calculated: maximum time to descend (s) and median time to descend (s). […]
as §3, §4
To assess the effects of test compounds on CGS-21680 and Reserpine pre-treated animals correlation analyses including animals from test groups and the respective test compound-treated groups were performed.
Additionally, parametric and non-parametric comparisons for the median catalepsy measure were performed to assess the reliability of the method. In case of parametric testing a GLM analyses was performed including animals from a control group (only vehicle treated animals) and the respective test compound-treated groups with dose as a categorical factor. In case of a significant result, a Dunnett's post hoc test was performed between the according test compound groups and a control group as reference group. In case of non-parametric testing a Kruskal-Wallis H-test was performed including animals from a control group and the respective test compound groups. In case of a significant result single U-test comparisons were performed between a control group and the groups treated with different doses of the test compound.

In the next data set the target is human A2A receptor (Homo sapiens, UniProt P29274). Description: Human A2A receptor IC50/Imax (unpublished results). The class given is binding.
Chain of human A2A receptor (P29274 whole entry): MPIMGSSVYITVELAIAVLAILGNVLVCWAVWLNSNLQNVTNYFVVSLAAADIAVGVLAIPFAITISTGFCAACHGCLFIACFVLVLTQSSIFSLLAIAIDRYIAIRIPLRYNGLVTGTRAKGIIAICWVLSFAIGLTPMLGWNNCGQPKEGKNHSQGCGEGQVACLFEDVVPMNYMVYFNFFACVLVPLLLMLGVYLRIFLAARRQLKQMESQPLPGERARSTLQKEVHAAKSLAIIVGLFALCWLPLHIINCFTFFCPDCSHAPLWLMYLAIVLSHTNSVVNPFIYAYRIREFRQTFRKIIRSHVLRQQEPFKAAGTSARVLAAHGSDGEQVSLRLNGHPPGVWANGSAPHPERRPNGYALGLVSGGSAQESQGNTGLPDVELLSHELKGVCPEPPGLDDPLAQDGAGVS
Data set [3] in a line: Water solubility (statement). Particulars: listed as 8-(phenylethynyl)-DMPX. The class given is physicochemical.
A further data set deals with T1, MAO-B (Homo sapiens, UniProt P27338).
T1 sequence (P27338 1-520): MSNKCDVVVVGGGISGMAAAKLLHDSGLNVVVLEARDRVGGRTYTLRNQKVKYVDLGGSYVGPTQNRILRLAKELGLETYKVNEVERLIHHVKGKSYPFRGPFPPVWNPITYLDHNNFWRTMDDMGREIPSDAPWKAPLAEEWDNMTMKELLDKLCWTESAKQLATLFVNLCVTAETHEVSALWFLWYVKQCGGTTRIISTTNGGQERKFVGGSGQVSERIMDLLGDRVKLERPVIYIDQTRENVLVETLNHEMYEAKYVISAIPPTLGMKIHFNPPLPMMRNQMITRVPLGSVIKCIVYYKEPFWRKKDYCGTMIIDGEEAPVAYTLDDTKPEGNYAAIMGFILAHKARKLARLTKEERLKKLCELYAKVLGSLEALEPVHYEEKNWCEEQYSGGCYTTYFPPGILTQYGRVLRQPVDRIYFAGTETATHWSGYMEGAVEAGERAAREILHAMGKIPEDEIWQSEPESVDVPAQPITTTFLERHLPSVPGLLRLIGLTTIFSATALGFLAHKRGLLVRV
Put plainly: MAO-B inhibition. It is filed as biochemical.

The target of the next data set is T2, Adenosine A2B (Homo sapiens, UniProt P29275).
T2 construct: expressed in transfected cells; host or cells: HEK-293 cells
T2 sequence (P29275 1-332): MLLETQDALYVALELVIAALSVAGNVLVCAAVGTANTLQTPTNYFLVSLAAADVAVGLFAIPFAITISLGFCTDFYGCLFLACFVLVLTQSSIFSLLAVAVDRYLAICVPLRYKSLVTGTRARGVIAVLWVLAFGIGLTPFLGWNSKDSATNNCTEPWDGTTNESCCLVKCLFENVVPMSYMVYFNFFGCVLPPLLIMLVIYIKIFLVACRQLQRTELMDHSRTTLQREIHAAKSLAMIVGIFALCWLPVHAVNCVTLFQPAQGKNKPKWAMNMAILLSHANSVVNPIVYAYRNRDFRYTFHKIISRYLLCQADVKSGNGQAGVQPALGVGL
Description: Radioligand binding assay 2, Adenosine A2B. Conditions: at 1 μmol/l; human recombinant HEK-293 cells, [3H]MRS 1754; read-out: A2B AR % inhibition of agonist binding. On the procedure:
(§5) The assays were performed under the conditions described below. The literature references are also provided for each assay:
The adenosine A2B radioligand binding assay used is further described in Stehle J. H. et al., Mol. Endocrinol., 1992, 6, 384 and is incorporated herein by reference.
(§6) The specific ligand binding to the receptors is defined as the difference between the total binding and the non-specific binding determined in the presence of an excess of unlabelled ligand. The results are expressed as a percent of control specific binding and as percent inhibition of control specific binding obtained in the presence of the test compounds.

The next data set concerns the target T3, Adenosine A3 (Homo sapiens, UniProt P0DMS8).
T3 construct: expressed in transfected cells; host or cells: HEK-293 cells
T3 sequence (P0DMS8 1-318): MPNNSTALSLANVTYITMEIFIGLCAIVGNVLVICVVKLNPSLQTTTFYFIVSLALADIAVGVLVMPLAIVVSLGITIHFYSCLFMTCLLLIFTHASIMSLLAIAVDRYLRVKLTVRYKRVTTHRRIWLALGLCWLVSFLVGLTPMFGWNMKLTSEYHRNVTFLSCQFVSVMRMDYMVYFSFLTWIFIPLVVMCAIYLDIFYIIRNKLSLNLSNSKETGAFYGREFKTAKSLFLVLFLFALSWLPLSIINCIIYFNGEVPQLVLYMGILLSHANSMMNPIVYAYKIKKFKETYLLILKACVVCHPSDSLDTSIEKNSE
Description: Radioligand binding assay 2, Adenosine A3. Particulars: at 1 μmol/l; human recombinant HEK-293 cells, [125I]AB-MECA; read-out: A3 AR % inhibition of agonist binding. The protocol:
as §5
The adenosine A3 radioligand binding assay used is further described in Salvatore C. A. et al., Proc. Natl. Acad. Sci. USA, 1993, 90, 10365 and is incorporated herein by reference.
as §6

The target in a further data set is T4, Adenosine A1 (Homo sapiens, UniProt P30542).
T4 sequence (P30542 1-326): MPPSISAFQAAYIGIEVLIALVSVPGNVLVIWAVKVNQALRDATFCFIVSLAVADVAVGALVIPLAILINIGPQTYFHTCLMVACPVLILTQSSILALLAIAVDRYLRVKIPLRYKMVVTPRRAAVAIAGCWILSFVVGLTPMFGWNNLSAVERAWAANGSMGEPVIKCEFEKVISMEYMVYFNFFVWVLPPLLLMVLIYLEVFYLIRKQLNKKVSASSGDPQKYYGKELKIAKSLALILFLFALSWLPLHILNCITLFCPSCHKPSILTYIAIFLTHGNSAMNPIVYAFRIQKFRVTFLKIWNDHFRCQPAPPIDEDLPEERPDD
Put plainly: Radioligand binding assay 2, Adenosine A1. Conditions: at 1 μmol/l; human recombinant CHO cells, [3H]CCPA; read-out: A1 AR % inhibition of agonist binding. On the set-up: expressed in transfected cells; host or cells: CHO cells. On the procedure: as §5
The adenosine A1 radioligand binding assay used is further described in Rivkees S. A. et al., J. Biol. Chem., 1995, 270, 20485 and is incorporated herein by reference.
as §6

A further data set addresses Adenosine A2A (Homo sapiens, UniProt P29274). Put plainly: Radioligand binding assay 2, Adenosine A2A. Further details: expressed in transfected cells; host or cells: HEK-293 cells. Particulars: at 1 μmol/l; human recombinant HEK-293 cells, [3H]CGS 21680; read-out: A2A AR % inhibition of agonist binding. The protocol: as §5
The adenosine A2A radioligand binding assay used is further described in Luthin D. R. et al., Mol. Pharmacol., 1995, 47 and is incorporated herein by reference.
as §6

Chain of Adenosine A2A (P29274 whole entry): as the sequence (P29274 whole entry) above

As to `C#CCn1c(=O)c2c(nc(C#Cc3ccccc3)n2C)n(C)c1=O`, the “effect on catalepsy time in acute CGS-21680 induced catalepsy model” value in [1] was “inactive”. In addition, the “effect on catalepsy time in acute Reserpine induced catalepsy model” value in data set [2] is “inactive”. On human A2A receptor, the IC50 is above 300 nM and the “Imax at the human receptor” value is “about 37%”. Further, the “water solubility (in words)” value in [3] is reported as “low solubility”.

Turning to `C#CCn1c(=O)c2c(nc(C#Cc3cccc(O)c3)n2C)n(C)c1=O` [8-(3-Hydroxyphenylethynyl)-3,7-dimethyl-1-prop-2-ynyl-3,7-dihydropurine-2,6-dione], the melting point turned out to be 271 °C.

On to `C#CCn1c(=O)c2c(nc(C#Cc3cccc(Cl)c3)n2C)n(C)c1=O` [8-(3-chlorophenylethynyl)-3,7-dimethyl-1-prop-2-ynyl-3,7-dihydropurine-2,6-dione], for which the Mao-B-inhibition values result at MAO-B was “submikromolar range”.

On to `C#CCn1c(=O)c2c(nc(C#Cc3cccc(OC(C)=O)c3)n2C)n(C)c1=O` [8-(3-Acetoxyphenylethynyl)-3,7-dimethyl-1-prop-2-ynyl-3,7-dihydropurine-2,6-dione], for which the melting point was 238 °C.

Take `C#CCn1c(=O)c2c(nc(C#Cc3ccc(OC)c(OC)c3)n2C)n(CCCO)c1=O` [drawing 612]: the inhibition at 1 µM is 14% at Adenosine A2B, 36% at Adenosine A3, 34% on Adenosine A1 and 97% at Adenosine A2A.

With `C#CCn1c(=O)c2c(nc(C#Cc3cccc(Br)c3)n2C)n(C)c1=O` [8-(3-bromophenylethynyl)-3,7-dimethyl-1-prop-2-ynyl-3,7-dihydropurine-2,6-dione], on MAO-B, the Mao-B-inhibition values result is given as “submikromolar range”.
